≈ marks a conversion by molar mass, not a printed value.
Experiments:
[1] = Inhibition of mouse Hepa-1c1c7 cells assessed as cell viability; type: cell-based
[2] = Chemoprevention index, ratio of IC50 for mouse Hepa-1c1c7 cells to drug level required to double NADPH:quinone reductase activity in mouse Hepa-1c1c7 cells; type: functional

| SMILES | IC50 [1] [µg/mL] | Ratio [2] |
| --- | --- | --- |
| COc1cc(OC)c2c(c1C=O)O[C@H](c1ccccc1)CC2=O | > 10 | >3.9 |
| CC1=C[C@@H]2[C@@H](CC1)[C@](C)(O)CC[C@H]2C(C)C | > 5 | >2.2 |
| CO/C(=C\C(=O)c1c(OC)cc2c(c1OC)C=CC(C)(C)O2)c1ccccc1 | 9.6 (≈ 25.2 µM) | 8 |
| C=C(C)[C@@H](O)Cc1c(OC)cc(OC)c2c1O[C@H](c1ccccc1)CC2=O | 19.3 (≈ 52.4 µM) | 4.4 |
| COc1cc2c(c3oc(-c4ccccc4)cc(=O)c13)C=CC(C)(C)O2 [CANDIDIN] | 4.5 (≈ 13.5 µM) | 1 |
| COc1cc(OC)c2c(c1CC=C(C)C)O[C@H](c1ccccc1)CC2=O [CANDIDONE] | 4.1 (≈ 11.6 µM) | 0.9 |
| COc1cc2c(c(OC)c1C(=O)CC(=O)c1ccc3c(c1)OCO3)C=CC(C)(C)O2 [PONGAPINONE A] | 23.8 (≈ 58 µM) | 4.8 |
| COc1cc(OC)c2c(c1CC=C(C)C)O[C@H](c1ccc3c(c1)OCO3)CC2=O [PONGAPINONE B] | 19.1 (≈ 48.2 µM) | 7.6 |
| COc1cc2c(c(OC)c1C(=O)/C=C(\O)c1ccccc1)C=CC(C)(C)O2 [PRAECANSONE B] | 6.5 (≈ 17.7 µM) | 1.8 |
| C[S+]([O-])CCCCN=C=S (stereo not given) [SULFORAPHANE] | 2.1 (≈ 11.8 µM) | 24.1 |

Reference: ChEMBL document CHEMBL1146593, “Constituents of the stem bark of Pongamia pinnata with the potential to induce quinone reductase” (J Nat Prod, 2003)
